From article PMC9161444, “In-Membrane Nanostructuring of Cationic Amphiphiles Affects Their Antimicrobial Efficacy and Cytotoxicity: A Comparison Study between a De Novo Antimicrobial Lipopeptide and Traditional Biocides” (Langmuir, 2022)

Experiments:
S. aureus (ATCC 6538) = format: cell-based, Staphylococcus aureus; conditions: for MIC/CAC, converted data, S. aureus: MIC divided by the amphiphile's CAC; for MIC, S. aureus: microdilution, serial half-dilution in PBS, Mueller Hinton broth, 37 °C, 24 h, 10^6 CFU/mL, by eye and OD600, ± SD, at least three replicates
Method: E. coli (ATCC 25922), S. aureus (ATCC 6538), and C. albicans SC5314 (ATCC MYA-2876) were purchased from the American Type Culture Collection (ATCC). The two bacterial strains, E. coli and S. aureus, were cultured in Mueller Hinton broth at 37 °C; while the yeast strain, C. albicans, was grown in RPMI 1640 medium at 30 °C. The microdilution method was employed to determine MICs of the amphiphiles against the microorganism strains listed above.[21] Solutions of lipopeptides and biocides were half-diluted serially in 96-well plates using PBS buffer containing 137 mM NaCl, 2.7 mM KCl, 8.1 mM Na2HPO4, and 1.9 mM KH2PO4 for E. coli and S. aureus and using RPMI 1640 for C. albicans. Overnight incubations of the strains, in each respective growth medium, were then inoculated into each well, giving final concentrations of 10^6 CFU/mL for E. coli and S. aureus and 10^5 CFU/mL for C. albicans. Culture media without microorganisms and amphiphiles were employed as positive controls, while fresh microorganism cultures without amphiphiles were used as negative controls. Each plate has both positive controls and negative controls. The plates were then incubated at an appropriate temperature (stated above) for 24 h for the bacterial strains and 48 h for the yeast strain. MICs of each sample were first determined by eye. A more quantitative analysis was carried out by measuring optical densities at 600 nm (OD600) of each well using a Sunrise absorbance microplate reader (Tecan Group Ltd.). Inhibitory ratios (IRs) of each sample at a given concentration against a specific strain, denoted as IRi, were calculated by IRi = (OD600,negative control – OD600,i)/(OD600,negative control – OD600,positive control) × 100%. All experiments were repeated at least three times with each group containing three replicates. To better analyze concentration–IR relationships, sigmoidal function fittings were employed to generate the best fitted dose response curve for each situation.

[1] = Surface tension measurements (CAC, area per molecule); format: physicochemical; conditions: Krüss K11, 25 °C, PBS or saline (171.5 mM NaCl, pH 7.2) of equivalent ionic strength, saline for C14KKGGII, points repeated at least three times
Method: Surface tensions of salt solutions of the amphiphiles were measured using a Krüss Force Tensiometer K11 at 25 °C. Saline (171.5 mM NaCl, final pH 7.2) instead of phosphate-buffered saline (PBS) was used to dissolve the samples of peptide C14KKGGII in order to avoid gelation above 0.1 mM. The ionic strength of the saline solution was the same as that of the PBS (consisting of 137 mM NaCl, 2.7 mM KCl, 8.1 mM Na2HPO4, and 1.9 mM KH2PO4, pH 7.2) solution employed in antimicrobial assays. Concentration effects on the surface tension were investigated for each amphiphile, and its CAC in the buffer environment was determined. All the data points were repeated at least three times. Quadratic functions were used to fit the surface tension at low concentrations below their CACs, while linear functions were used to fit the high concentration regions above the CACs for all three amphiphiles: [drawing 1] 1 [drawing 2] 2 where γ represents the surface tension in milli-newtons per meter, C is the amphiphile concentration in millimolar, and a1, b1, b2, c1, and c2 are the best fitted parameters. Intersections of the two lines give the estimated CACs of the amphiphiles. The Gibbs equation for solutions with a constant and excess salt is [drawing 3] […] The areas per molecule for the three amphiphiles at their CACs were calculated using [drawing 6] […]

hRBCs = format: cell-based, human; conditions: hemolysis in PBS, 4% hRBC suspension mixed 1:1, 37 °C, 1 h, OD450, sigmoidal fit; ± SD, at least three replicates; read-out: EC50, hRBC (50% hemolysis)
Method: hRBCs were purchased from Rockland Immunochemical Inc. Hemolytic assays were performed in 96-well plates in an environment of PBS, as previously described.[13],[23] Amphiphiles were half diluted serially at first, resulting in 100 μL of solution in each well, and mixed subsequently with 100 μL of 4% hRBC suspension. Wells filled by PBS mixed with hRBC were employed as positive controls, while hRBCs with added 0.1% Triton X-100 were negative controls. After incubating at 37 °C for 1 h, the plates were centrifuged at 1000 times gravity for 5 min. The supernatants in each well, which contained the released hemoglobin, were transferred to another plate, and their optical density at 450 nm (OD450) was measured using an absorbance microplate reader. The percentage of hemolysis H for each sample at a certain concentration c was obtained by Hc = (OD450,c – OD450,positive control)/(OD450,negative control – OD450,positive control) × 100%. Figures for percentage leakage against concentration for each sample were plotted to determine the approximate range of 50% hemolysis, and the relevant concentration was the half maximal effective concentration (EC50) of the sample. Each experiment was repeated at least three times with each containing three replicates. The dose–response curves were again obtained by applying sigmoidal functional fits to obtain the EC50 values.

SMILES	MIC/CAC, converted data, S. aureus (S. aureus (ATCC 6538))	MIC, S. aureus (S. aureus (ATCC 6538)) [µM]	CAC (critical aggregation concentration) [1] [µM]	EC50 (hRBCs) [µM]
CCCCCCCCCCCC[N+](C)(C)C.[Br-] [C12TAB, dodecyltrimethylammonium bromide]	0.03 ± 0.01	25 ± 7	~1000 ± 100	610 ± 30
CCCCCCCCCCCCCC[N+](C)(C)C.[Br-] [C14TAB, tetradecyltrimethylammonium bromide]	0.06 ± 0.04	6 ± 4		98 ± 8
